# From patent publication US6573296B2, “Therapeutic quassinoid preparations with antineoplastic, antiviral, and herbistatic activity” (priority 1997, dated 2003)
# Key:
# [1] = tested on: plasma membrane NADH oxidase (tNOX)
# NADH oxidase [2] = experiment: NADH oxidase activity of CFK microsomes from infected cells; conditions: Plasma membrane-free CFK microsomes (Golgi-enriched) from infected cells
# [3] = tested on: HIV infected human MOLT-4 cells; experiment: differential killing of HIV infected cells; type: cell-based; conditions: FIGS. 8 and 9
# Sorghum (DeKalb 18) = experiment: growth of plants in soil after foliar application; type: in vivo; conditions: twenty days after treatment, 10 μl of 1:1000/half pot; control plants 16 cm
# Method: (§1) To evaluate the growth phenotype of a set of plants, a 1 mg concentration of 100 Mm (solution QD-2). This solution was diluted serially with water with or without Triton X-100, ethanol or DMSO and used directly for measurement of effects on seed germination or applied using a microliter syringe to foliage to evaluate growth effects on plants.
# Sorghum (DeKalb 18) plants growing in soil were treated as for Arabadopsis thaliani above after 6 days of germination when the plants were about 5 cm high (as the leaf emerged from the coleoptile sheath). Growth was retarded. Twenty days after treatment, control plants were 16 cm high and treated plants were 12 cm high. The application rate was 10 µl of 1:1000/half pot=2.5×10^−3 oz/A.
# [4] = tested on: Crandall Feline Kidney cells (CFK cells), uninfected; experiment: time for complete cell killing, uninfected cells
# [5] = tested on: Crandall Feline Kidney cells infected with Feline Immunodeficiency Virus (FIV); experiment: time for complete cell killing, FIV-infected cells
# [6] = tested on: leukemia and solid tumor cells; experiment: in vitro differential cytotoxicity, solid tumor versus leukemia; type: cell-based; conditions: solid tumor versus leukemia zones
# [7] = tested on: porcine pseudorabies virus; conditions: rabbit kidney cells
# human rhinovirus-14 = experiment: cytopathic effect of rhinovirus in HeLa cells; type: cell-based; conditions: HeLa cells (Wisconsin strain), visually observed
# Method: C. HeLa cells (Wisconsin strain, Berlin, Germany) were contacted with human rhinovirus-14. Infected cells (Wisconsin strain) were visually observed. […] HeLa cells were not killed by any compounds used. Cells of other HeLa lines (eg. ATCC CCL2) were killed. Glaucarubolone, simalikalactone D and chaparrinone were tested on cell killing and virus production by primary blood monocytes. All three drugs were tested at five concentrations (0, 10^−9, 10^−8, 10^−7, and 10^−6 M). Drugs were given at different times pre-infection, given at the time of infection, or were administered at different times post-infection.
# M17/Adr = conditions: multidrug resistant, p-glycoprotein expressing mammary tumor versus leukemia
# NADH oxidase [8] = experiment: NADH oxidase activity of rat liver cell fractions; conditions: for EC50: read-out: ED50, inhibition of NADH oxidase activity
# NADH oxidase [9] = experiment: NADH oxidase activity of CFK microsomes from uninfected cells; conditions: read-out: ED50, inhibition of NADH oxidase activity; Plasma membrane-free CFK microsomes (Golgi-enriched) from uninfected cells
# L1210 = experiment: soft agar disk diffusion zone of inhibition assay; type: cell-based, mice; conditions: 25 ug/disk
# [10] = tested on: cabbage, radish, carrot, tomato and sorghum seeds; experiment: seed germination; type: in vivo
# Method: as §1
# With seed germination, the compound was evaluated against five species: cabbage (Early Jersey Wakefield), radish (Scarlet Turnip White Tipped), carrot (Danvers Half Long), tomato (Rutgers) and sorghum (DeKalb 18). With water dilutions, seed germination of all species was inhibited at 10 μM (an aqueous dilution of 10 μl of 100 Mm 1:1000 in 100 μl of water) (Final DMSO concentration of 1:10,000=0.01%). Germination of tomato was inhibited at 10μ1/100 µl of an aqueous dilution of 1:10,000=1 μM final concentration.
smiles,measurement,setting,value
"CC1=CC(=O)C(O)C2(C)C1CC1OC(=O)C(O)C3C(C)C(O)C4(O)OCC13C42 (centres unmarked) [Glaucarubolone, glaucarubolone]","inhibition of NADH oxidation, in words","[1]; HeLA (ATCC CCL2 strain), FIG. 10",inhibits NADH oxidation
same,effect of redox poise on inhibition of NADH oxidase activity,"[1]; HeLa cell plasma membranes, FIG. 12",affected little by redox poise
same,"ED50, inhibition of NADH oxidase activity",NADH oxidase [2],>10^−8 M
same,killing of HIV infected MOLT-4 cells compared to uninfected cells,[3],differentially killed at two log orders less
same,height of treated plants,Sorghum (DeKalb 18),12 cm
same,"Time for complete cell killing (>98%), Uninfected",[4]; 3 × 10^−4 M,120 h
same,"Time for complete cell killing (>98%), Uninfected",[4]; 3 × 10^−5 M,120 h
same,"Time for complete cell killing (>98%), Uninfected",[4]; 3 × 10^−6 M,144 h
same,"Time for complete cell killing (>98%), Uninfected",[4]; 3 × 10^−7 M,192 h
same,"Time for complete cell killing (>98%), Uninfected",[4]; 3 × 10^−8 M,>192 h
same,"Time for complete cell killing (>98%), Uninfected",[4]; 3 × 10^−9 M,>192 h
same,"Time for complete cell killing (>98%), FIV-Infected",[5]; 3 × 10^−4 M,>168 h
same,"Time for complete cell killing (>98%), FIV-Infected",[5]; 3 × 10^−5 M,>168 h
same,"Time for complete cell killing (>98%), FIV-Infected",[5]; 3 × 10^−6 M,>168 h
same,"Time for complete cell killing (>98%), FIV-Infected",[5]; 3 × 10^−7 M,>168 h
same,"Time for complete cell killing (>98%), FIV-Infected",[5]; 3 × 10^−8 M,>168 h
same,"Time for complete cell killing (>98%), FIV-Infected",[5]; 3 × 10^−9 M,>168 h
same,killing of FIV-infected compared to non-infected CFK cells,"[5]; FIGS. 6 and 7, Table 3",differential killing of infected cells
same,solid tumor selectivity in vitro,[6],demonstrated solid tumor selectivity
same,cytopathic effect on non-infected treated control cells,[7]; non-infected,no cytopathic affect
same,cytopathic effect of porcine pseudorabies virus,[7]; visually monitored,inhibited cytopathic effect
same,cytopathic effect of human rhinovirus-14,human rhinovirus-14,Cytopathic effect was delayed
same,differential / selectivity for M17/Adr (Mam 17/Adr),M17/Adr,demonstrated selectivity
same,"inhibition of NADH oxidation, in words","NADH oxidase [8]; isolated plasma membranes of liver cells, FIG. 10",inhibits NADH oxidation
same,EC50,NADH oxidase [8]; Rat liver golgi apparatus,> 10 µM
same,EC50,NADH oxidase [8]; Rat liver microsomes,> 10 µM
same,EC50,NADH oxidase [8]; Rat liver plasma membrane,> 10 µM
same,EC50,NADH oxidase [9],> 10 µM
same,zone of inhibition L1210,L1210,25:100 ZONE UNITS
same,lowest concentrations at which inhibitions of germination were observed,"[10]; DMSO and ethanol dilutions 1:10^6 or 1:10^7, solvents themselves retarded germination",10-100 Nm
same,concentration at which seed germination was inhibited,"[10]; all five species, water dilutions",10 µM
same,concentration at which seed germination was inhibited,"[10]; tomato, aqueous dilution 1:10,000",1 µM
